# Source: patent publication US20080182835A1 (priority 2006, published 2008)
# What was measured:
# [1] = tested on: BHK cells infected with Sindbis virus; assay: Cell viability of Sindbis-infected BHK cells, Trypan blue dye-exclusion and light microscopy; type: cell-based, hamster; details: for cell viability (viable cell count): 48 hour infection
# Experimental: Additional cell viability studies were done using a combined assessment of cellular morphology via light microscopy, or visual inspection of cell viability, and plasma membrane integrity measurements using a Trypan blue dye-exclusion assay. Specifically, BHK cells were seeded to the wells of a 96-well plate (2×10^4 cells/well) and cultured overnight in complete growth medium. […] After a 48 hour infection period, the cells were resuspended and an aliquot of cells (10 μL) was mixed with 90 μL 0.2% trypan blue. The number of viable cells was determined by counting with a hemocytometer.
# Also, a corresponding set of wells was identically prepared exclusively for observation using Trypan blue staining and light microscopy. FIGS. 6A-6H are light microscopy images showing cell morphology at various concentrations of Co(NH3)6 at 48 hours post infection following 6 hours of pretreatment with Co(NH3)6. […] Viable cells remain attached to the tissue culture substrate and have an elongated, epithelial cell-like appearance. The arrows in FIGS. 6E-6G indicate examples of cells that have retained an elongated and adherent morphology. Non-viable cells are detached from the tissue culture substrate and are rounded. FIGS. 6B-6H illustrate that pronounced cell death is apparent in the presence of no Co(NH3)6 (FIG. 6B) and at lower concentrations of Co(NH3)6 (FIGS. 6C and 6D).
# SV-infected BHK cells = assay: Flow cytometry propidium iodide viability of Sindbis-infected BHK cells; type: cell-based, hamster
substance,measurement,setting,value
Co(NH3)6,cell viability (viable cell count),"[1]; Sindbis-infected, 6 hours pretreatment, at 1.2 mM",80%
same,cell viability (viable cell count),"[1]; Sindbis-infected, at 0.15 mM",further decreased viability
same,"cell morphology, viable cells by light microscopy","[1]; Sindbis-infected, 48 hours post infection, at 0.6 and 1.2 mM",viable cells appeared more pronounced
same,concentration providing optimal protection against Sindbis virus,[1]; light microscopy and cell viability count,1.2 mM
same,percentage of PI-positive (non-viable) cells,"SV-infected BHK cells; at 0.15 mM, relative to untreated infected cells",significantly lower percentage
same,effect of timing of treatment on survivability of the cells,"SV-infected BHK cells; pretreatment, co-infection, 2, 4 and 24 hours post-infection",very little effect
